Assay results reported in US20240025862A1, “SUBSTITUTED N-PHENYLURACILS AND SALTS THEREOF, AND USE THEREOF AS HERBICIDAL ACTIVE SUBSTANCES” (Bayer Aktiengesellschaft, priority 2020, published 2024).

What was measured:
Type in all cases: in vivo
[1] = system: Abutilon theophrasti (ABUTH); assay: Post-emergence herbicidal action, greenhouse pot test; conditions: rated visually after about 3 weeks vs untreated controls, 100% = plants have died
Method: (§1) Seeds of monocotyledonous and dicotyledonous weeds and crop plants were placed in sandy loam in plastic or wood-fiber pots, covered with soil and cultivated in a greenhouse under controlled growth conditions. 2 to 3 weeks after sowing, the test plants were treated at the one-leaf stage. The compounds of the invention, formulated in the form of wettable powders (WP) or as emulsion concentrates (EC), were then sprayed onto the green parts of the plants as aqueous suspension or emulsion with addition of 0.5% additive at a water application rate of 600 l/ha (converted). After the test plants had been kept in the greenhouse under optimum growth conditions for about 3 weeks, the activity of the preparations was rated visually in comparison to untreated controls. For example, 100% activity=the plants have died, 0% activity=like control plants.
(§2) Tables A1 to A14 below show the effects of selected compounds of the general formula (I) according to Tables I.1 to I.33 on various harmful plants and at an application rate corresponding to 20 g/ha and less, which were obtained by the experimental method specified above. The appendices “a”, “b” and “c” give differentiation by different dosage with otherwise the same harmful plants tested.

[2] = system: Amaranthus retroflexus (AMARE); assay: as above; conditions: rated visually after about 3 weeks vs untreated controls, 100% = plants have died
Method: as §1, §2

[3] = system: Pharbitis purpurea (PHBPU); assay: as above
Method: as §1, §2

[4] = system: Polygonum convolvulus (POLCO); assay: as above
Method: as §1, §2

Veronica persica (VERPE) = assay: as above
Method: as §1, §2

Viola tricolor (VIOTR) = assay: as above
Method: as §1, §2

[5] = system: Alopecurus myosuroides (ALOMY); assay: Post-emergence herbicidal action, greenhouse pot test (also comparative test C); conditions: rated visually after about 3 weeks vs untreated controls, 100% = plants have died
Method: as §1, §2
(§3) C. Comparative Herbicidal Action and Crop Plant Compatibility of Two Inventive Compounds (I.7-1 and I.7-115) with a Compound of Similar Structure Known from the Literature (WO2002/098227, a-17 and EP1106607, 3-14) in Post-Emergence Treatment.
(§4) Tables C1-C4 below show the effects of two inventive compounds (I.7-1 and I.7-115) together with a compound of similar structure known from the literature (a-17 in WO2002/098227, and 3-14 in EP1106607) in different crop plants at an application rate corresponding to 5 g/ha or less, which have been obtained by the aforementioned experimental procedure.

[6] = system: Echinochloa crus-galli (ECHCG); assay: as above
Method: as §1, §2, §3, §4

[7] = system: Matricaria inodora (MATIN); assay: as above
Method: as §1, §2, §3, §4

Setaria viridis (SETVI) = assay: as above; conditions: for Post-emergence action against SETVI: 20 g/ha
Method: as §1, §2, §3, §4

[8] = system: Triticum aestivum (TRZAS); assay: Post-emergence crop plant compatibility, greenhouse pot test; conditions: vs untreated controls
Method: as §1
(§5) The observed effects on selected crop plants are reported here in comparison to the untreated controls (values in %). The appendices “a”, “b” and “c” give differentiation by different dosage with otherwise the same crop plants tested.

Oryza sativa (ORYSA) = assay: Post-emergence crop plant compatibility, greenhouse pot test (also comparative test C); conditions: for Post-emergence action against ORYSA (crop plant compatibility): vs untreated controls
Method: as §1, §5, §3

Row | SMILES | Post-emergence action at 5 g/ha against ABUTH in % [1] [%] | Post-emergence action at 20 g/ha against ABUTH in % [1] [%] | Post-emergence action at 1.25 g/ha against AMARE in % [2] [%] | Post-emergence action at 5 g/ha against AMARE in % [2] [%] | Post-emergence action at 20 g/ha against AMARE in % [2] [%] | Post-emergence action against PHBPU in % ([3]; dosage 1.25 g/ha) [%] | Post-emergence action against PHBPU in % ([3]; dosage 5 g/ha) [%] | Post-emergence action against PHBPU in % ([3]; dosage 20 g/ha) [%] | Post-emergence action against POLCO in % ([4]; dosage 5 g/ha) [%] | Post-emergence action against POLCO in % ([4]; dosage 20 g/ha) [%] | Post-emergence action against VERPE (Veronica persica (VERPE); 1.25 g/ha) [%] | Post-emergence action against VERPE (Veronica persica (VERPE); 5 g/ha) [%] | Post-emergence action against VERPE (Veronica persica (VERPE); 20 g/ha) [%] | Post-emergence action against VIOTR (Viola tricolor (VIOTR); 5 g/ha) [%] | Post-emergence action against VIOTR (Viola tricolor (VIOTR); 20 g/ha) [%] | Post-emergence action at 20 g/ha against ALOMY in % [5] [%] | Post-emergence action against ECHCG in % ([6]; dosage 20 g/ha) [%] | Post-emergence action against MATIN in % ([7]; dosage 5 g/ha) [%] | Post-emergence action against MATIN in % ([7]; dosage 20 g/ha) [%] | Post-emergence action against SETVI (Setaria viridis (SETVI)) [%] | further results
1 | COCCOCCOC(=O)COc1ccccc1Oc1cc(-n2c(=O)cc(C(F)(F)F)n(C)c2=O)c(F)cc1C#N [I.9-23] | 100 | 100 | 100 | 100 | 100 | 80 | 100 | 100 | 100 | 100 | 80 | 100 | 100 | 100 | 100 | 80 | 100 | 80 | 100 | 100 | Post-emergence action at 1.25 g/ha against ABUTH in % ([1]; 1.25 g/ha): 80%; Post-emergence action against VIOTR (Viola tricolor (VIOTR); 1.25 g/ha): 100%; Post-emergence action against SETVI in % (Setaria viridis (SETVI); dosage 1.25 g/ha): 100%; Post-emergence action against SETVI in % (Setaria viridis (SETVI); dosage 5 g/ha): 100%; Post-emergence action against TRZAS (crop plant compatibility) ([8]; 1.25 g/ha): 0%; Post-emergence action against TRZAS (crop plant compatibility) ([8]; 5 g/ha): 20%; Post-emergence action against TRZAS (crop plant compatibility) ([8]; 20 g/ha): 20%; Post-emergence action against ORYSA (crop plant compatibility) (Oryza sativa (ORYSA); 1.25 g/ha): 0%; Post-emergence action against ORYSA (crop plant compatibility) (Oryza sativa (ORYSA); 5 g/ha): 0%; Post-emergence action against ORYSA in % (Oryza sativa (ORYSA); 20 g/ha, crop plant compatibility): 20%
2 | COCCOCCOC(=O)COc1cccc(F)c1Oc1cc(-n2c(=O)cc(C(F)(F)F)n(C)c2=O)c(F)cc1Cl [I.19-23] | 100 | 100 | 100 | 100 | 100 | 100 | 100 | 100 | 100 | 100 | 100 | 100 | 100 | 100 | 100 | 100 | 100 | 100 | 100 | 100 | Post-emergence action against POLCO in % ([4]; dosage 1.25 g/ha): 100%; Post-emergence action at 5 g/ha against ALOMY in % ([5]; 5 g/ha): 80%; Post-emergence action against ECHCG in % ([6]; dosage 5 g/ha): 100%; Post-emergence action against SETVI in % (Setaria viridis (SETVI); dosage 1.25 g/ha): 100%; Post-emergence action against SETVI in % (Setaria viridis (SETVI); dosage 5 g/ha): 100%; Post-emergence action against TRZAS (crop plant compatibility) ([8]; 1.25 g/ha): 10%; Post-emergence action against ORYSA (crop plant compatibility) (Oryza sativa (ORYSA); 1.25 g/ha): 10%
